Source: publication PMC10415338, “HIV-1-induced nuclear invaginations mediated by VAP-A, ORP3, and Rab7 complex explain infection of activated T cells” (Nature Communications, 2023)

Target: T1, VOR complex (VAP-A, ORP3, Rab7); Rab7 binding to ORP3 (Homo sapiens, UniProt Q9H4L5)
T1 construct: gene OSBPL3; endogenous full-length proteins in HeLa detergent lysate, ORP3 immunoisolated with antibody D-12; with Ras-related protein Rab-7a; Vesicle-associated membrane protein-associated protein A
T1 sequence (Q9H4L5 1-887): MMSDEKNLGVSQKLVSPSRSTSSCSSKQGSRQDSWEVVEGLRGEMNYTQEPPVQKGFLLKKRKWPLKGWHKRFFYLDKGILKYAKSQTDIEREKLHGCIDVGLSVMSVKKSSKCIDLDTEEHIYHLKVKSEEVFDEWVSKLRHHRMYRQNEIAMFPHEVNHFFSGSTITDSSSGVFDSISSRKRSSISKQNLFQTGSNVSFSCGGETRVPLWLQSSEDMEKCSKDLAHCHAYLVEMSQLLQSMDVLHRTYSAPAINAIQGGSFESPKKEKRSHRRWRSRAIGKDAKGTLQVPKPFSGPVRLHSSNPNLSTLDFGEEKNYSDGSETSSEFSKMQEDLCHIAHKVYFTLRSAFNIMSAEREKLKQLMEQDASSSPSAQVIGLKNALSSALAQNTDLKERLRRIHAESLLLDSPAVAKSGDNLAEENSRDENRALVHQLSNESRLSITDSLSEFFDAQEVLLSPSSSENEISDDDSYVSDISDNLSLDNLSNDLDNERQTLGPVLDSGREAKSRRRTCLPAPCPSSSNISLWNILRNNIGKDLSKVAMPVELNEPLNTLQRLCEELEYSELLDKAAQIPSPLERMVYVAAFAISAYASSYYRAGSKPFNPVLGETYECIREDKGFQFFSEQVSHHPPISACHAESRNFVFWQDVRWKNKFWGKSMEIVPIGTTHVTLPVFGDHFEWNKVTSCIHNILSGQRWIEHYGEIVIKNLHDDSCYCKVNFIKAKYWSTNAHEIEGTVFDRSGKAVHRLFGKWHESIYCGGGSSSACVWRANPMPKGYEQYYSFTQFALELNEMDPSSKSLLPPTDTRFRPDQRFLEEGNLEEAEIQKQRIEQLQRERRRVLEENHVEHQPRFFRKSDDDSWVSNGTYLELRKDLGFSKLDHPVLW
T1 sequence (Q9P0L0 2-249 partner): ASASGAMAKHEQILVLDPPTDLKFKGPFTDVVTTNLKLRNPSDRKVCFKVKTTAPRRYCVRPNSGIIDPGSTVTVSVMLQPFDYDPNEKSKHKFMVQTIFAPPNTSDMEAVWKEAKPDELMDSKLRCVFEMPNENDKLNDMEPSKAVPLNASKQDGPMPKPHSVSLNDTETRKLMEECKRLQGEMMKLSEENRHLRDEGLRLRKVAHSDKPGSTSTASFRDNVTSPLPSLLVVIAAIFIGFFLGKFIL
Assay: ORP3 immunoisolation from drug-treated HeLa detergent lysate, Rab7/ORP3 immunoblot ratio, linear regression
Type: biochemical
Details: inhibition of Rab7 binding to ORP3 (VAP-A/ORP3); lysate with 1-10 μM compound, 30 min on ice; direct site on ORP3 ORD only cited from earlier work

SMILES | IC50
CCC(C)n1ncn(-c2ccc(N3CCN(c4ccc(OCC5COC(Cn6cncn6)(c6ccc(Cl)cc6Cl)O5)cc4)CC3)cc2)c1=O (stereo not drawn) [ICZ, cis-4[4-4-4[[2-(2-4-dichlorophenyl)-2-(1H-1,2,4,triazol-1-methyl)-1,3-dioxolan-4-yl]-1-piperazinyl]phenyl]-2,4-dihydro-2-(1-methyl-propyl)-3H-1,2,4-triazol-3-one] | 4.9 µM
CCC(C)n1ncn(-c2ccc(Cl)cc2)c1=O (centres unmarked) [PRR851] | 4.8 µM
